Laboratory results reported in patent US4775524A, “Method of treating hyperproliferative skin disease with substituted heterospiro pyridine derivatives” (Schering Corporation, priority 1986, dated 1988).

Tested on: arachidonic acid-induced inflammatory reaction, mouse ear
Assay: Arachidonic Acid Mouse Ear Test
Assay type: in vivo, Charles River, female, CD, (SD) BR mice
Conditions: topical, 30 minutes prior to AA challenge; for Tissue Wt.: 6 mm punch biopsy 1 hour after AA, mean ± standard error; for % Inhibition: biopsy 1 hour after AA
Source text: A compound of formula I may be utilized to treat hyperoroliferative skin disease in a mammal. As used herein, "hyperproliferative skin disease" means any condition a symptom of which is accelerated skin cell production, flaking, scales or papular lesions. Representative examples of hyperproliferative skin diseases include osoriasis, eczema, dandruff and the like. […] The Arachidonic Acid Mouse Ear Test is a recognized model for assessing the effectiveness of compounds for the treatment of hyperproliferative skin disease.
Charles River, female, CD, (SD) BR mice, 6 weeks old, are caged 8/group and allowed to acclimate 1-3 weeks prior to use.
Arachidonic acid (AA) is dissolved in reagent grade acetone (2 mg/0.01 ml) and stored at -20° C. for a maximum of 1 week prior to use. Inflammatory reactions are induced by applying 10 μl of AA to both surfaces of one ear (4 mg total).
Test drugs are dissolved in either reagent grade acetone or acueous ethanol (only if insoluble in acetone) at the same doses selected by Opas et al., Fed. Proc. 43, Abstract 2983, P. 1927 (1984) and Young et al., J. Invest. Dermatol. 82, pp. 367-371 (1984). These doses are employed to ensure maximum responses and to overcome any difference in topical absorption which could occur with any drug applied in an aqueous ethanol vehicle. The test drug is applied 30 minutes prior to challenge with AA.
The severity of the skin reaction is measured as a function of increased ear weight. A 6 mm punch biopsy is removed 1 hour after AA challenge and weighed to the nearest 0.1 mg. Mean ± standard error and all possible comparisons are made via Duncan's Multiple Range Statistic.

With `O=C1c2cccnc2N(c2ccccc2)C(=O)C12CCCCO2` (centres unmarked) [1-Phenyl-3',4',5',6'-tetrahydro-spiro-[1,8-naphthyridine-3,2'-(2H)pyran]-2,4-dione] the Tissue Wt. (dose 0.125 mg/ear) was 4.86 ± 0.39 mg, the “% Inhibition” value (dose 0.125 mg/ear) was 30% and the Tissue Wt. (dose 0.25 mg/ear) was 4.97 ± 0.7 mg. The “% Inhibition” value (dose 0.25 mg/ear) was 28%, the Tissue Wt. (dose 0.5 mg/ear) was 4.39 ± 0.62 mg and the “% Inhibition” value (dose 0.5 mg/ear) was 37%. For the same molecule, the Tissue Wt. (dose 1.0 mg/ear) was 2.27 ± 0.29 mg and the “% Inhibition” value (dose 1.0 mg/ear) was 67%.
